For the assay, the system named is 596521-263-R-J1-PDC complex spheroids, viability % of control. The assay is described as follows: Anticancer human tumor 596521-263-R-J1-PDC patient-derived soft tissue sarcoma cell line growth inhibition [GQUAD]. The following applies: for viability, T/C: stronger effect = lower value. From the text: DNA G-quadruplex Stabilizer Agents in Combinations in Complex Spheroids
A high-throughput screen of multi-cell type tumor spheroids was designed to identify active combinations of DNA G-quadruplex stabilizer agents and targeted small molecules. Complex spheroids include a stromal component modeled by human endothelial cells (HUVEC) and fibroblasts modeled by human mesenchymal stem cells (MSCs). The concentration ranges selected for each drug and investigational agent were based upon clinically achievable concentrations if the clinical Cmax of the agent was known.
Compounds. The drugs and investigational agents: pidnarulex (CX-5461; NSC782164), APTO-253 (NSC789042), BRACO-19 (NSC847499), peposertib (NSC802822), ceralasertib (NSC780249), elimusertib (NSC800525), camonsertib (NSC841442), AZD-1390 (NSC803789), olaparib (NSC753686), talazoparib (NSC767125), ART-558 (NSC835418), sotorasib (NSC818433), MRTX-1133 (NSC836407), SN-38 (NSC673596), topotecan (NSC609699), etoposide (NSC141540), doxorubicin (NSC123127), gemcitabine (NSC613327), 5-fluorouracil (NSC19893), paclitaxel (NSC125973), vemurafenib (NSC761431), panobinostat (NSC761190), R-306465 (JNJ-16241199; NSC773264), adavosertib (NSC754352), TP-3654 (NSC805149), carboplatin (NSC241240), KSQ-4279 (NSC840948), and staurosporine (NSC755774) were obtained from the National Cancer Institute (NCI) Developmental Therapeutics Program Chemical Repository (34). The FDA-approved anticancer drug set is available from the NCI Developmental Therapeutics Program. […] The stock solutions were prepared in dimethyl sulfoxide (DMSO, Sigma-Aldrich, St. Louis, MO, cat. D2650) at 800-fold the tested concentration and stored at -70 degrees C prior to their use. All drugs and investigational agents were tested over a range starting from a high concentration at or near the clinical Cmax and decreasing in half-log increments. If the clinical Cmax for an agent had not been determined, the highest concentration tested was 10 microM.
2.3 Cell Culture. All cells were maintained in an incubator at 37 degrees C and 5% CO2 with 95% humidity. The PDC lines were cultured according to standard operating procedures established by the NCI PDMR. All PDCs were thawed and cultured in Matrigel-coated flasks prepared with a working solution of 1X Ham's F-12 nutrient mix, without supplementation (Invitrogen, cat. 11765054), 100 U/mL penicillin-streptomycin (Invitrogen, cat. 15140122), and 2.5% Matrigel (Corning Inc., cat. 354248) for the first three passages. The 857933-349-R-J2-PDC line was cultured in 6C/Colon 1B media, which includes advanced DMEM/F-12 (Thermo Fisher Scientific, cat. 12634028), 10 mM HEPES (Thermo Fisher Scientific, cat. 15630080), 1X GlutaMAX supplement (Thermo Fisher Scientific, cat. 35050061), 0.1 mg/mL primocin (InvivoGen, cat. ant-pm-2), 10% defined fetal bovine serum, heat inactivated (HyClone Laboratories Inc., cat. SH30070.03HI), 50% L-WRN conditioned media (ATCC, cat. CRL-3276), 1.25 mM N-Acetyl-L-cysteine (Sigma-Aldrich, cat. A9165), 10 mM nicotinamide (Sigma-Aldrich, cat. N0636), 1X B-27 supplement (Thermo Fisher Scientific, cat. 17504044), 1X N-2 supplement (Thermo Fisher Scientific, cat. 17502048), 10 microM Y-27632 dihydrochloride (Tocris Bioscience, cat. 1254), and 50 ng/mL human EGF recombinant protein (Thermo Fisher Scientific, cat. PHG0311). The 485176-168-R4-J1-PDC line was cultured in Panc media, which includes all 6C/Colon 1B media components plus 100 ng/mL human FGF-10 (Thermo Fisher Scientific, cat. 100-26), 500 nM SB-431542 (Selleckchem, cat. S1067), and gastrin (Tocris, cat. 3006).
[…]

pIC50: −log10 of the molar value. Several values for one entry are separate records, joined by “and”; a condition that tells them apart may be missing. Equal entries are not always repeated.
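Also: spheroids exposed to drugs for 7 days before viability reading.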

By viability, T/C is commonly meant the result in the treated group divided by that in the control group, in per cent. The pIC50 is −log10 of the IC50, conventionally taken in molar units. For the compound `CC1COCCN1c1cc(-c2ccnn2C)c2ccnc(-c3ccn[nH]3)c2n1` (centres undefined), the viability, T/C (compound 0.0316 µM) was 78.3% and 73.2% and 70.2%; the viability, T/C (compound 0.1 µM) was 59.2% and 55.7% and 62.7%; the viability, T/C (compound 0.316 µM) was 57.2% and 47.1% and 50.2%; the viability, T/C (compound 1 µM) is 43.9% and 42.6% and 44.5%; the viability, T/C (compound 3.16 µM) was 30.3% and 34% and 31.6%; the viability, T/C (compound 10 µM) is 24.4% (2×) and 23.9%. In addition, for the setting “curve of compound”, the pIC50 is 6.34 and 6.56 and 6.39.

Consider `COc1ccc([C@@H](O)c2cc(-c3ncnc4cc(N5CCOCC5)ccc34)c(F)cc2Cl)nn1`, for which the viability, T/C by setting is: (compound 0.0316 µM) 102% and 104% and 98.4%; (compound 0.1 µM) 96.8% and 88% and 99.3%; (compound 0.316 µM) 89.7% and 79.9% and 93.3%; (compound 1 µM) 77.9% and 79.6% and 88.5%; (compound 3.16 µM) 66.9% and 63.6% and 80%; (compound 10 µM) 51% and 47.4% and 51.9%. Besides, for the setting “curve of compound”, the negative-log IC50 (pIC50) was < 5.00 and 5.01.

For `Cc1cccc(N(C)C(=O)C2C(O)CCN2c2nc(C)cc(C(F)(F)F)c2C#N)c1` (centres undefined), the viability, T/C (compound 0.0316 µM) is 113% and 94.7% and 106%; the viability, T/C (compound 0.1 µM) is 103% and 98.2% and 94.6%; the viability, T/C (compound 0.316 µM) was 95.1% and 106% and 98.1%; the viability, T/C (compound 1 µM) is 101% and 98.4% and 112%; the viability, T/C (compound 3.16 µM) is 89.7% and 108% and 114%; the viability, T/C (compound 10 µM) was 91.4% and 96.3% and 101%. Also, the pIC50 (curve of compound) was less than 5.00.

In the case of `COc1cccc2c1C(=O)c1c(O)c3c(c(O)c1C2=O)CC(O)(C(=O)CO)CC3OC1CC(N)C(O)C(C)O1` (centres undefined), the viability, T/C was 93% and 105% and 97.4% (compound 0.0316 µM); 74.8% and 74.5% and 88.6% (compound 0.1 µM); 63.1% and 58% and 65.8% (compound 0.316 µM); 58.1% and 54.2% and 56.5% (compound 1 µM); 29.4% and 28.7% and 29.6% (compound 3.16 µM); 4.46% and 3.41% and 4.53% (compound 10 µM). The negative-log IC50 (pIC50) (curve of compound) is 5.97 and 6.14 and 5.95.

On to `CC(=O)O[C@H]1C(=O)[C@@]2(C)[C@H]([C@H](OC(=O)c3ccccc3)[C@]3(O)C[C@H](OC(=O)[C@H](O)[C@@H](NC(=O)c4ccccc4)c4ccccc4)C(C)=C1C3(C)C)[C@]1(OC(C)=O)CO[C@@H]1C[C@@H]2O`, for which the viability, T/C reads like this: (compound 0.0316 µM) 76.3% and 38.3% and 43.2%; (compound 0.1 µM) 42.8% and 28.9% and 29%; (compound 0.316 µM) 10.7% and 26.6% and 31.2%. Also, the negative-log IC50 (pIC50) (curve of compound) was 7.11 and > 7.50.

As for `COc1cccc2c1C(=O)c1c(O)c3c(c(O)c1C2=O)CC(O)(C(=O)CO)CC3OC1CC(N)C(O)C(C)O1` (centres undefined) + CN(C)c1ccc(Nc2c3ccc(NC(=O)CCN4CCCC4)cc3nc3cc(NC(=O)CCN4CCCC4)ccc23)cc1, the pIC50 (curve of first compound, second compound 0.0316 µM) is 6.16; the negative-log IC50 (pIC50) (curve of first compound, second compound 0.1 µM) is 6.04; the pIC50 (curve of first compound, second compound 0.316 µM) is 6.14; the pIC50 (curve of first compound, second compound 1 µM) was 6.10; the pIC50 (curve of first compound, second compound 3.16 µM) is 6.00; the pIC50 (curve of first compound, second compound 10 µM) is 6.39. Further, the viability, T/C runs as follows: (second compound 0.0316 µM, first compound 0.0316 µM) 96.9%; (second compound 0.0316 µM, first compound 0.1 µM) 75.1%; (second compound 0.0316 µM, first compound 0.316 µM) 55.8%; (second compound 0.0316 µM, first compound 1 µM) 54.9%; (second compound 0.0316 µM, first compound 3.16 µM) 29.7%; (second compound 0.0316 µM, first compound 10 µM) 3.98%. The viability, T/C is, setting by setting: (second compound 0.1 µM, first compound 0.0316 µM) 94.2%; (second compound 0.1 µM, first compound 0.1 µM) 73.8%; (second compound 0.1 µM, first compound 0.316 µM) 70.3%; (second compound 0.1 µM, first compound 1 µM) 47.7%; (second compound 0.1 µM, first compound 3.16 µM) 29.4%; (second compound 0.1 µM, first compound 10 µM) 6.1%. In addition, the viability, T/C was 108% (second compound 0.316 µM, first compound 0.0316 µM); 80.6% (second compound 0.316 µM, first compound 0.1 µM); 53.1% (second compound 0.316 µM, first compound 0.316 µM); 51.5% (second compound 0.316 µM, first compound 1 µM); 29.6% (second compound 0.316 µM, first compound 3.16 µM); 5.16% (second compound 0.316 µM, first compound 10 µM). Besides, the viability, T/C (second compound 1 µM, first compound 0.0316 µM) was 104%; the viability, T/C (second compound 1 µM, first compound 0.1 µM) was 76.7%; the viability, T/C (second compound 1 µM, first compound 0.316 µM) was 58.5%; the viability, T/C (second compound 1 µM, first compound 1 µM) is 55.8%; the viability, T/C (second compound 1 µM, first compound 3.16 µM) is 31%; the viability, T/C (second compound 1 µM, first compound 10 µM) is 5.6%. Also, the viability, T/C is 89.5% (second compound 3.16 µM, first compound 0.0316 µM); 84.5% (second compound 3.16 µM, first compound 0.1 µM); 55.6% (second compound 3.16 µM, first compound 0.316 µM); 56.6% (second compound 3.16 µM, first compound 1 µM); 30.3% (second compound 3.16 µM, first compound 3.16 µM); 6.32% (second compound 3.16 µM, first compound 10 µM). The viability, T/C runs as follows: (second compound 10 µM, first compound 0.0316 µM) 67.3%; (second compound 10 µM, first compound 0.1 µM) 59.1%; (second compound 10 µM, first compound 0.316 µM) 47.7%; (second compound 10 µM, first compound 1 µM) 42.9%; (second compound 10 µM, first compound 3.16 µM) 30.8%; (second compound 10 µM, first compound 10 µM) 5.21%.
